Results published in PMC3914206.

Columns and labels:
panel of 442 kinases [1] = biological target: T1, panel of 442 kinases (Homo sapiens, UniProt Q12852); type: binding; settings: Compound Concentration 10 µM
T1 construct: purchased KINOMEscan
T1 sequence (Q12852 1-859): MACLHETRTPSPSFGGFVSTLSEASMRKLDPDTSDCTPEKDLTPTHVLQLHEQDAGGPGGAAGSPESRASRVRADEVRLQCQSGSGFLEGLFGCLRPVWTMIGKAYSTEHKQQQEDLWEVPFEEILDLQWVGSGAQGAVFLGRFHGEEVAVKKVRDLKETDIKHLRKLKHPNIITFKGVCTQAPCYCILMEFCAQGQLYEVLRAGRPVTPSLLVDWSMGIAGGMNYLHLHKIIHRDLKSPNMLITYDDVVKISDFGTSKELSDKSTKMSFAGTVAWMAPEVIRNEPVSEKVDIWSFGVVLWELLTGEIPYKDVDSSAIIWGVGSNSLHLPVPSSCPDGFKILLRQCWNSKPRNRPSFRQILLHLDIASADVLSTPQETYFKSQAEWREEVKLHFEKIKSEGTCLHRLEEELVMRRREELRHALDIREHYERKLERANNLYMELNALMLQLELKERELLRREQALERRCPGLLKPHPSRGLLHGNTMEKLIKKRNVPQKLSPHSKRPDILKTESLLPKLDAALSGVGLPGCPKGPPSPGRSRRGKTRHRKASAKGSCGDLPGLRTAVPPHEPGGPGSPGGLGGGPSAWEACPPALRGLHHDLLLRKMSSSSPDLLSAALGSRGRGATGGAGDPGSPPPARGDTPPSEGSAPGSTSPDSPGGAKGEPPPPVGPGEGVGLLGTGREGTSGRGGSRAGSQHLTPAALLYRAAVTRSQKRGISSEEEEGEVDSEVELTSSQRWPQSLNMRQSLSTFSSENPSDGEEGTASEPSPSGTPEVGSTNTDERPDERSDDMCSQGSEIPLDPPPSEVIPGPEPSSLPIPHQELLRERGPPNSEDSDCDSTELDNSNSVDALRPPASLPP
Text: (§1) We assessed the selectivity of members of this scaffold using the KINOMEscan methodology across a near comprehensive panel of 442 kinases [[18,27]].

panel of 442 kinases [2] = biological target: T2, panel of 442 kinases (Homo sapiens, UniProt Q15835); type: binding; settings: Compound Concentration 10 µM
T2 construct: purchased KINOMEscan
T2 sequence (Q15835 1-563): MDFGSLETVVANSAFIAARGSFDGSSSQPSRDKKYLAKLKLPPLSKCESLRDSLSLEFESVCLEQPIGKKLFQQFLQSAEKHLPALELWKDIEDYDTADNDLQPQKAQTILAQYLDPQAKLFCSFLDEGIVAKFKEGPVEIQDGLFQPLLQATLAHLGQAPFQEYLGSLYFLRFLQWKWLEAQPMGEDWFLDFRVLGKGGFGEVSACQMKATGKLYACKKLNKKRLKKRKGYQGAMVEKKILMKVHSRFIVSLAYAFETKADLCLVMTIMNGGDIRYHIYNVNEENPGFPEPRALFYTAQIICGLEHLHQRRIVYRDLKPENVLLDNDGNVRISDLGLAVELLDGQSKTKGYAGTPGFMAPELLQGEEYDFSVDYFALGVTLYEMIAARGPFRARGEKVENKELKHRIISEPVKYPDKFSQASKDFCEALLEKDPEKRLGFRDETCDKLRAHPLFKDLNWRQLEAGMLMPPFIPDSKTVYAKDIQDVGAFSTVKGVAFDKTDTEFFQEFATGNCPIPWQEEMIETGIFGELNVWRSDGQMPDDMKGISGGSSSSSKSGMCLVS
Text: as §1

Row | SMILES | KINOMEscan: DLK (panel of 442 kinases [1]) | KINOMEscan: GRK1 (panel of 442 kinases [2])
1 | COc1cc(C(=O)N2CCC(N3CCN(C)CC3)CC2)ccc1Nc1ncc2c(n1)N(C1CCCC1)c1ccccc1C(=O)N2C [Compound 25, 11-cyclopentyl-2-((2-methoxy-4-(4-(4-methylpiperazin-1-yl)piperidine-1-carbonyl)phenyl)amino)-5-methyl-5H-benzo[e]pyrimido[5,4-b][1,4]diazepin-6(11H)-one] | 62 | 85
2 | CCOc1cc(C(=O)N2CCC(N3CCN(C)CC3)CC2)ccc1Nc1ncc2c(n1)N(C1CCCC1)c1ccccc1C(=O)N2C [Compound 26] | 100 | 100
3 | COc1cc(C(=O)N2CCC(N3CCN(C)CC3)CC2)ccc1Nc1ncc2c(n1)N1CCc3cccc(c31)C(=O)N2C [Compound 24] | 78 | 
4 | COc1cc(C(=O)N2CCC(N3CCN(C)CC3)CC2)ccc1Nc1ncc2c(n1)N(C)c1ccccc1C(=O)N2C [15 (LRRK2-IN-1)] | 81 | 91
